Reference: ChEMBL document CHEMBL4138105, “LL-37-derived short antimicrobial peptide KR-12-a5 and its d-amino acid substituted analogs with cell selectivity, anti-biofilm activity, synergistic effect with conventional antibiotics, and anti-inflammatory activity” (Eur J Med Chem, 2017)
In brackets after ≈: the same amount, converted by molar mass. Activity calls are given as the source filed them. No cut-off for these calls is given here.

What was measured:
NIH3T3 = experiment: Cytotoxicity against mouse NIH/3T3 cells up to 128 uM after 48 hrs by MTT assay; type: cell-based; details: nih3t3, 48 h
Staphylococcus aureus [1] = experiment: Antibacterial activity against Staphylococcus aureus KCTC 1621 in presence of 20% human serum after 24 hrs; type: functional; details: KCTC 1621, 24 h
Pseudomonas aeruginosa [2] = experiment: Potency index, ratio of LL-37 MIC to compound MIC for multidrug-resistant Pseudomonas aeruginosa CCARM 2109; type: functional
Pseudomonas aeruginosa [3] = experiment: Synergistic antibacterial activity against multidrug-resistant Pseudomonas aeruginosa CCARM 2095 after 72 hrs in presence of oxacillin by chequerboard assay; type: functional
Staphylococcus aureus [4] = experiment: Potency index, ratio of LL-37 MIC to compound MIC for methicillin resistant Staphylococcus aureus CCARM 3090; type: functional
Staphylococcus aureus [5] = experiment: Antibacterial activity against methicillin resistant Staphylococcus aureus CCARM 3095 after 24 hrs; type: functional; details: CCARM 3095, 24 h
Staphylococcus aureus [6] = experiment: Potency index, ratio of LL-37 MIC to compound MIC for methicillin resistant Staphylococcus aureus CCARM 3095; type: functional
RAW264.7 [7] = experiment: Anti-inflammatory activity in mouse RAW264.7 cells assessed as reduction in LPS-induced IL-6 mRNA expression at 10 uM after 3 hrs by RT-PCR analysis; type: functional, cell-based
RAW264.7 [8] = experiment: Cytotoxicity against mouse RAW264.7 cells up to 128 uM after 48 hrs by MTT assay; type: cell-based; details: raw264.7, 48 h
Pseudomonas aeruginosa [9] = experiment: Potency index, ratio of LL-37 MBIC90 to compound MBIC90 for antibiofilm activity against multidrug-resistant Pseudomonas aeruginosa CCARM 2095; type: functional
RAW264.7 [10] = experiment: Anti-inflammatory activity in mouse RAW264.7 cells assessed as reduction in LPS-induced iNOS mRNA expression at 5 uM after 6 hrs by RT-PCR analysis; type: functional, cell-based
Staphylococcus aureus [11] = experiment: Antibacterial activity against Staphylococcus aureus KCTC 1621 in presence of 2.5 mM CaCl2 after 24 hrs; type: functional; details: KCTC 1621, 24 h
Staphylococcus aureus [12] = experiment: Antibacterial activity against Staphylococcus aureus KCTC 1621 assessed as cell membrane disruption at 2 times MIC within 4 mins by Sytox Green dye based fluorescence spectrophotometer assay; type: functional, organism-based
Staphylococcus aureus [13] = experiment: Potency index, ratio of melittin MIC to compound MIC for methicillin resistant Staphylococcus aureus CCARM 3089; type: functional
[14] = Hemolytic activity in human RBC at 96 uM after 1 hr relative to control; type: ADME, cell-based, Erythrocyte; details: red blood cells (RBC, erythrocytes), read-out: Activity

SMILES | Activity (NIH3T3) | MIC (Staphylococcus aureus [1]) [µM] | Ratio (Pseudomonas aeruginosa [2]) | fractional inhibitory concentration index (FICI) (Pseudomonas aeruginosa [3]) | Ratio (Staphylococcus aureus [4]) | MIC (Staphylococcus aureus [5]) [µM] | Ratio (Staphylococcus aureus [6]) | Activity (RAW264.7 [7]) | Activity (RAW264.7 [8]) | fold change (FC) (Pseudomonas aeruginosa [9]) | Activity (RAW264.7 [10]) | MIC (Staphylococcus aureus [11]) [µM] | Activity (Staphylococcus aureus [12]) | Ratio (Staphylococcus aureus [13]) | hemolysis at 1 h, 96 µM [14] [%]
CC[C@H](C)[C@H](NC(=O)[C@H](CCCNC(=N)N)NC(=O)[C@@H](N)CCCCN)C(=O)N[C@H](C(=O)N[C@@H](CCCCN)C(=O)N[C@H](CC(C)C)C(=O)N[C@H](C(=O)N[C@@H](CC(C)C)C(=O)N[C@@H](CCCCN)C(=O)N[C@@H](Cc1c[nH]c2ccccc12)C(=O)N[C@@H](CC(C)C)C(=O)N[C@@H](CCCNC(=N)N)C(N)=O)[C@@H](C)CC)C(C)C | Non-Toxic | 16 | 2 - 4 | 0.5 | 2 - 4 | 4 (≈ 6.26 µg/mL) | 2 - 4 | Active | Non-Toxic | 4 - 8 | Active | 8 | Active | 2 - 4 | –
CC[C@H](C)[C@H](NC(=O)[C@H](CC(C)C)NC(=O)[C@@H](CCCCN)NC(=O)[C@@H](NC(=O)[C@@H](NC(=O)[C@H](CCCNC(=N)N)NC(=O)[C@@H](N)CCCCN)[C@@H](C)CC)C(C)C)C(=O)N[C@@H](CC(C)C)C(=O)N[C@@H](CCCCN)C(=O)N[C@@H](Cc1c[nH]c2ccccc12)C(=O)N[C@@H](CC(C)C)C(=O)N[C@@H](CCCNC(=N)N)C(N)=O | Non-Toxic | 16 | 2 - 4 | 0.375 | 2 - 4 | 4 (≈ 6.26 µg/mL) | 2 - 4 | Active | Non-Toxic | 4 - 8 | Active | 4 | Active | 2 - 4 | –
CC[C@H](C)[C@H](NC(=O)[C@H](CCCNC(=N)N)NC(=O)[C@@H](N)CCCCN)C(=O)N[C@H](C(=O)N[C@@H](CCCCN)C(=O)N[C@@H](CC(C)C)C(=O)N[C@H](CC(C)C)C(=O)N[C@@H](CC(C)C)C(=O)N[C@@H](CCCCN)C(=O)N[C@@H](Cc1c[nH]c2ccccc12)C(=O)N[C@@H](CC(C)C)C(=O)N[C@@H](CCCNC(=N)N)C(N)=O)C(C)C | Non-Toxic | 16 | 2 - 4 | 0.3125 | 2 - 4 | 4 (≈ 6.26 µg/mL) | 2 - 4 | Active | Non-Toxic | 4 - 8 | Active | 4 | Active | 2 - 4 | –
CC[C@H](C)[C@H](NC(=O)[C@H](CC(C)C)NC(=O)[C@H](CCCCN)NC(=O)[C@@H](NC(=O)[C@@H](NC(=O)[C@H](CCCNC(=N)N)NC(=O)[C@@H](N)CCCCN)[C@@H](C)CC)C(C)C)C(=O)N[C@@H](CC(C)C)C(=O)N[C@@H](CCCCN)C(=O)N[C@@H](Cc1c[nH]c2ccccc12)C(=O)N[C@@H](CC(C)C)C(=O)N[C@@H](CCCNC(=N)N)C(N)=O | Non-Toxic | 8 | 2 - 4 | 0.375 | 2 - 4 | 4 (≈ 6.26 µg/mL) | 2 - 4 | Active | Non-Toxic | 4 - 8 | Active | 2 | Active | 2 - 4 | 50
